According to article PMC5242521 (PLoS ONE, 2017):

What was measured:
OCT1 = target: T1, OCT1 (Homo sapiens, UniProt O15245); assay: Cis-inhibition of OCT1-mediated TEA accumulation in HEK-OCT1 cells; type: cell-based; details: pyrethroid 100 μM; 29 μM [14C]-TEA, 5 min
T1 sequence (O15245 1-554): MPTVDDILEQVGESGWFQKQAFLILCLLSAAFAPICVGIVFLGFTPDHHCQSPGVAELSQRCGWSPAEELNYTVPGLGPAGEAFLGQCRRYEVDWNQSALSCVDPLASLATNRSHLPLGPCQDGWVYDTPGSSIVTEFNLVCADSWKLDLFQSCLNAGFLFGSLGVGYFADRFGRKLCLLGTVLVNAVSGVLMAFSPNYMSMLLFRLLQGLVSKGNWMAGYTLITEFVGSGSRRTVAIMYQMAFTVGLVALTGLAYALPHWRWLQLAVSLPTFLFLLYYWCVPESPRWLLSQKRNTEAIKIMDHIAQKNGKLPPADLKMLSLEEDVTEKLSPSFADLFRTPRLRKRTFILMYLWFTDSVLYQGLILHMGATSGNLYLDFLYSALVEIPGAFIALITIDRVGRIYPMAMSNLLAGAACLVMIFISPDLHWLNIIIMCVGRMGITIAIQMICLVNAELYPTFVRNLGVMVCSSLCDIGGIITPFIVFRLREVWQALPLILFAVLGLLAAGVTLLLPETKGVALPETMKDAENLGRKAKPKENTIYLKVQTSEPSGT
Experimental: Intracellular accumulation of TEA was then determined by scintillation counting. […] After washing, cells were next re-incubated with 29 μM [1-^14C]-TEA for 5 min at 37°C. Intracellular accumulation of [1-^14C]-TEA was then determined by scintillation counting.

OATP1B3 = target: T2, OATP1B3 (Homo sapiens, UniProt Q9NPD5); assay: OATP1B3 activity: fluorescein accumulation in CHO-OATP1B3 cells; type: cell-based; details: pyrethroid up to 100 μM
T2 construct: expressed in transfected cells; host or cells: CHO
T2 sequence (Q9NPD5 1-702): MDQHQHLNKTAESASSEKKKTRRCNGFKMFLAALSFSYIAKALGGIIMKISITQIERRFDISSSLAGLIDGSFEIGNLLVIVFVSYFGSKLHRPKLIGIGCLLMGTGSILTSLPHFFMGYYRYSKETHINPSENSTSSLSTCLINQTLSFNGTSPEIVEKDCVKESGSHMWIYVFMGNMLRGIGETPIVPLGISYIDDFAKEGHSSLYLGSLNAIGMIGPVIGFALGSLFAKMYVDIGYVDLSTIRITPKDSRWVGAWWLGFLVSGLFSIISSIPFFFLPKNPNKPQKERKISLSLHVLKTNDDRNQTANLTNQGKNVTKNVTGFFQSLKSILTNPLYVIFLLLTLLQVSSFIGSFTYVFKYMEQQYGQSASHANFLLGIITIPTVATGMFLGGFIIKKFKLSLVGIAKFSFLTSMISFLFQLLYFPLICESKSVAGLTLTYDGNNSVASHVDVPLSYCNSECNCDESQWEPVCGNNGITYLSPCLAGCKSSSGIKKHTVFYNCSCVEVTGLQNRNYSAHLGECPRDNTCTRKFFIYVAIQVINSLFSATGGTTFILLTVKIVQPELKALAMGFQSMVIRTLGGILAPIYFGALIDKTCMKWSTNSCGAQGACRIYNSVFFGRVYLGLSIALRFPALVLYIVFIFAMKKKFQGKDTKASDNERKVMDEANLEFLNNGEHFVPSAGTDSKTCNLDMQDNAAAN
Experimental: The effects of pyrethroids on activity of ABC and SLC transporters were determined through measuring cellular accumulation or retention of fluorescent or radiolabeled reference substrates for transporters, in the presence or absence of reference inhibitors, as previously described [41].
For accumulation assays (performed for all transporters, excepted BCRP), transporter-expressing cells usually cultured in 48-well plates were first incubated at 37°C with reference substrates in the absence (control) or presence of pyrethroids or reference inhibitors, in a well-defined transport assay medium [42], consisting of 136 mM NaCl, 5.3 mM KCl, 1.1mM KH2PO4, 0.8 mM MgSO4, 1.8 mM CaCl2, 10 mM HEPES, 11 mM D-glucose and adjusted to pH = 7.4 (excepted for MATE transporter assays, for which pH was set to 8.4). The nature of substrates and reference inhibitors and the incubation times with substrates, that varied according to the transporter, were selected in agreement with previous studies [41, 43] and are indicated in S3 Table. The total incubation volume with substrates was 200 μL/well. […]
Intracellular concentrations of reference substrates were initially expressed as fluorescence arbitrary units (for fluorescent dye substrates) or as moles (for radiolabeled substrates) and normalized to cellular protein content, determined by the Bradford method [44]. […]

| SMILES | cis-effect on TEA accumulation in HEK-OCT1 cells (OCT1) | effect on OATP1B3 activity (OATP1B3) | effect on OATP1B3 activity (OATP1B3; listed as Tetramethrin) |
| --- | --- | --- | --- |
| C=CCC1=C(C)C(OC(=O)C2C(C=C(C)C)C2(C)C)CC1=O (stereo not drawn) [allethrin] | markedly cis-inhibit | – | – |
| CC(C)=CC1C(C(=O)OCN2C(=O)C3=C(CCCC3)C2=O)C1(C)C (stereo not drawn) [tetramethrin] | – | failed to alter | No effect (up to 100 μM) |
